Laboratory results from ChEMBL document CHEMBL1909046, “DrugMatrix in vitro pharmacology data”.

Columns and labels:
[1] = DRUGMATRIX: Glutamate, AMPA radioligand binding (ligand: [3H] AMPA); type: cell membranes, Rattus norvegicus, Wistar, Cerebral cortex, Membrane; settings: Not Active = under 50% inhibition at 10 µM
[2] = DRUGMATRIX: Leukotriene, BLT (LTB4) radioligand binding (ligand: [3H]LTB4); type: cell membranes, Membrane; settings: u-937; Not Active = under 50% inhibition at 10 µM
[3] = target: T1, Muscarinic acetylcholine receptor M4 (Homo sapiens, UniProt P08173); type: cell membranes, CHO-K1, Membrane; also: in other assays of this panel Not Active means under 50% inhibition at 10 µM
T1 sequence (P08173 whole entry): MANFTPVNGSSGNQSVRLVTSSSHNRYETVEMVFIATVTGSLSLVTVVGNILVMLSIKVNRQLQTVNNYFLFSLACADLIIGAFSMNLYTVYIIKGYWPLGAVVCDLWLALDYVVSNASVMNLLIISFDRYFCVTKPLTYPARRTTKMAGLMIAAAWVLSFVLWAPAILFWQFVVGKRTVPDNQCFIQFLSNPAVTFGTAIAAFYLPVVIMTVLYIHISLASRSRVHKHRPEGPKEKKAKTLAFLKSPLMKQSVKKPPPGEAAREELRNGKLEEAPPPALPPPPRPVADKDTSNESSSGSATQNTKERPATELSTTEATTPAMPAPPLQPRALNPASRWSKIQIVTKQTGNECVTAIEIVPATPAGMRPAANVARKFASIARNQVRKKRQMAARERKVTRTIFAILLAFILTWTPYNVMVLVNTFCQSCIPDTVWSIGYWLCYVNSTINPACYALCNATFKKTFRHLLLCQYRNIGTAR

[4] = target: T2, Estrogen receptor (Homo sapiens, UniProt P03372); settings: sf9; also: in other assays of this panel Not Active means under 50% inhibition at 10 µM
T2 sequence (P03372 whole entry): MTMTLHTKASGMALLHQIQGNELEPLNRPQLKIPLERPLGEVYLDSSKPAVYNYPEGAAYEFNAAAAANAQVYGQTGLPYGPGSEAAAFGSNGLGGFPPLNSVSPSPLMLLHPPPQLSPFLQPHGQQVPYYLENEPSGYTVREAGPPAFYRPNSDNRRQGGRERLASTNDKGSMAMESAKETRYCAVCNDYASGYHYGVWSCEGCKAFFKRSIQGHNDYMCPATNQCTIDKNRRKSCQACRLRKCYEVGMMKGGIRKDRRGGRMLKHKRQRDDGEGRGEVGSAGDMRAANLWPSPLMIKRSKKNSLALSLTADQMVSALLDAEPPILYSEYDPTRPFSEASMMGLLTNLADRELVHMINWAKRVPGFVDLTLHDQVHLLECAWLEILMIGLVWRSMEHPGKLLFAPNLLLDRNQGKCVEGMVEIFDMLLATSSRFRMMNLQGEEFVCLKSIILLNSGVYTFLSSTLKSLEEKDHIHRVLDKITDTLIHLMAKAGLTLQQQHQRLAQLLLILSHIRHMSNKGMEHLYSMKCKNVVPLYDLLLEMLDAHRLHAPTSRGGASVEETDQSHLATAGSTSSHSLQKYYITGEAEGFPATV

[5] = target: T3, Androgen receptor (Rattus norvegicus, UniProt P15207); also: in other assays of this panel Not Active means under 50% inhibition at 10 µM
T3 sequence (P15207 whole entry): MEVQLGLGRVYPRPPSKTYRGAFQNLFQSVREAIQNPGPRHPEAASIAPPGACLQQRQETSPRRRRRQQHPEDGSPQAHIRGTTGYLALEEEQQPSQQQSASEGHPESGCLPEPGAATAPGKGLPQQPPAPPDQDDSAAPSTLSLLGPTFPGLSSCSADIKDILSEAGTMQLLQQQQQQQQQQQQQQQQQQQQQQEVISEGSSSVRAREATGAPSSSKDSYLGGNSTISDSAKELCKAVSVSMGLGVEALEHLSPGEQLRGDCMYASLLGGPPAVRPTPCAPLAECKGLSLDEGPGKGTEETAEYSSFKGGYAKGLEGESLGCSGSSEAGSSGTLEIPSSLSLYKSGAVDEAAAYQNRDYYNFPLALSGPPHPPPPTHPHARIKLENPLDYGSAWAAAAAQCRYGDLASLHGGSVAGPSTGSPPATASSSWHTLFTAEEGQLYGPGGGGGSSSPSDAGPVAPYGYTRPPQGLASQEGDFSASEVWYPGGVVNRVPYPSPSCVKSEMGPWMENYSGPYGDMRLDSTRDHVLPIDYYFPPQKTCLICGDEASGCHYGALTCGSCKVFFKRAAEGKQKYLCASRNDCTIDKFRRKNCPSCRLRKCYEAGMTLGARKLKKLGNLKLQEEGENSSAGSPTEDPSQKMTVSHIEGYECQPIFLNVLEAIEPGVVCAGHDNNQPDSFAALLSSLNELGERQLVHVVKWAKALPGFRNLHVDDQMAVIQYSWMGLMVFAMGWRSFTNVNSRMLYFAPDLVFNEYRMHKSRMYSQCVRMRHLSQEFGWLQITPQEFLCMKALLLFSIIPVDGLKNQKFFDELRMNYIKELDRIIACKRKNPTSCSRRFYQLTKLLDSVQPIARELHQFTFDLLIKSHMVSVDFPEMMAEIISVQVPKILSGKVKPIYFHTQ

SMILES | IC50 [1] | Ki [1] | IC50 [2] | Ki [2] | IC50 ([3]; cho-k1) | IC50 ([3]; read-out: IC50) [nM] | Ki ([3]; read-out: Ki) [nM] | IC50 [4] | IC50 [5]
Cc1cc(C)nc(NS(=O)(=O)c2ccc(N)cc2)n1 [SULFAMETHAZINE] | Not Active | Not Active | Not Active | Not Active | Not Active | – | – | – | –
CN1CCC(=C2c3ccccc3C=Cc3ccccc32)CC1 [CYPROHEPTADINE] | – | – | – | – | – | 16 | 2.19 | Not Active | –
CNC(=C[N+](=O)[O-])NCCSCc1ccc(CN(C)C)o1 [RANITIDINE] | Not Active | Not Active | Not Active | Not Active | Not Active | – | – | Not Active | –
CC(=O)N1CCN(c2ccc(OCC3COC(Cn4ccnc4)(c4ccc(Cl)cc4Cl)O3)cc2)CC1 (stereo unspecified) [KETOCONAZOLE] | Not Active | Not Active | Not Active | Not Active | Not Active | – | – | Not Active | –
CC(C)CC(N(C)C)C1(c2ccc(Cl)cc2)CCC1 (stereo unspecified) [SIBUTRAMINE] | Not Active | Not Active | Not Active | Not Active | Not Active | – | – | – | –
Cc1onc(-c2ccccc2)c1-c1ccc(S(N)(=O)=O)cc1 [VALDECOXIB] | Not Active | Not Active | Not Active | Not Active | Not Active | – | – | – | –
CC/C(=C(/CC)c1ccc(O)cc1)c1ccc(O)cc1 [DIETHYLSTILBESTROL] | – | – | – | – | Not Active | – | – | – | –
C[C@]1(Cn2ccnn2)[C@H](C(=O)O)N2C(=O)C[C@H]2S1(=O)=O [TAZOBACTAM] | Not Active | Not Active | Not Active | Not Active | Not Active | – | – | Not Active | –
COCCOC(=O)C1=C(C)NC(C)=C(C(=O)OC(C)C)C1c1cccc([N+](=O)[O-])c1 (stereo unspecified) [NIMODIPINE] | Not Active | Not Active | Not Active | Not Active | Not Active | – | – | Not Active | –
Cc1cccc(Nc2ccncc2S(=O)(=O)NC(=O)NC(C)C)c1 [TORSEMIDE] | Not Active | Not Active | Not Active | Not Active | Not Active | – | – | Not Active | –
[Cl-].[Cl-].[Zn+2] [ZINC CHLORIDE] | Not Active | Not Active | Not Active | Not Active | Not Active | – | – | Not Active | –
C=CCN1CC[C@]23c4c5ccc(O)c4O[C@H]2C(=O)CC[C@@]3(O)[C@H]1C5 [NALOXONE] | – | – | – | – | Not Active | – | – | – | –
CN1C(C(=O)Nc2ccccn2)=C(O)c2sccc2S1(=O)=O [TENOXICAM] | Not Active | Not Active | Not Active | Not Active | Not Active | – | – | Not Active | –
COc1cc(NS(=O)(=O)c2ccc(N)cc2)nc(OC)n1 [SULFADIMETHOXINE] | Not Active | Not Active | Not Active | Not Active | Not Active | – | – | Not Active | Not Active
CC(=O)N[C@@H]1[C@H](Oc2c3cc4cc2Oc2ccc(cc2Cl)[C@@H](O[C@@H]2O[C@@H](CO)[C@@H](O)[C@H](O)[C@@H]2NC(C)=O)[C@@H]2NC(=O)[C@H](NC(=O)[C@@H]4NC(=O)[C@H]4NC(=O)[C@@H](Cc5ccc(c(Cl)c5)O3)NC(=O)[C@H](N)c3ccc(O)c(c3)Oc3cc(O)cc4c3)c3ccc(O)c(c3)-c3c(O[C@H]4O[C@H](CO)[C@@H](O)[C@@H](O)[C@@H]4O)cc(O)cc3[C@@H](C(=O)O)NC2=O)O[C@@H](CO)[C@@H](O)[C@@H]1O | Not Active | Not Active | Not Active | Not Active | Not Active | – | – | Not Active | Not Active
O=C1CCC(N2C(=O)c3ccccc3C2=O)C(=O)N1 (stereo unspecified) [THALIDOMIDE] | Not Active | Not Active | Not Active | Not Active | Not Active | – | – | – | –
CC[C@]1(O)C[C@@H]2CN(CCc3c([nH]c4ccccc34)[C@@](C(=O)OC)(c3cc4c(cc3OC)N(C)[C@H]3[C@@](O)(C(=O)OC)[C@H](OC(C)=O)[C@]5(CC)C=CCN6CC[C@]43[C@@H]65)C2)C1 [VINBLASTINE] | Not Active | Not Active | Not Active | Not Active | Not Active | – | – | Not Active | –
CC1=C(CC(=O)O)c2cc(F)ccc2/C1=C\c1ccc([S+](C)[O-])cc1 (stereo unspecified) | Not Active | Not Active | Not Active | Not Active | Not Active | – | – | – | –
CC(C)C[C@H](NC(=O)[C@@H](O)[C@H](N)Cc1ccccc1)C(=O)O [UBENIMEX] | Not Active | Not Active | Not Active | Not Active | Not Active | – | – | Not Active | –
CC(C)c1nc(CN(C)C(=O)N[C@H](C(=O)N[C@@H](Cc2ccccc2)C[C@H](O)[C@H](Cc2ccccc2)NC(=O)OCc2cncs2)C(C)C)cs1 [RITONAVIR] | Not Active | Not Active | Not Active | Not Active | Not Active | – | – | Not Active | –
CC(=O)CC(c1ccccc1)c1c(O)c2ccccc2oc1=O (stereo unspecified) [WARFARIN] | Not Active | Not Active | Not Active | Not Active | Not Active | – | – | – | –
COCCCOc1ccnc(C[S+]([O-])c2nc3ccccc3[nH]2)c1C (stereo unspecified) [RABEPRAZOLE] | Not Active | Not Active | Not Active | Not Active | Not Active | – | – | – | –
N[C@H](CSC(=S)NCc1ccccc1)C(=O)O | Not Active | Not Active | Not Active | Not Active | Not Active | – | – | Not Active | Not Active
[H]/N=C(/N)N[C@H]1[C@H](O)[C@@H](O)[C@H](O[C@@H]2O[C@@H](C)[C@](O)(C=O)[C@H]2O[C@@H]2O[C@@H](CO)[C@H](O)[C@@H](O)[C@@H]2NC)[C@@H](N/C(N)=N\[H])[C@@H]1O [STREPTOMYCIN] | Not Active | Not Active | Not Active | Not Active | Not Active | – | – | Not Active | –
CC(C)(C)c1ccc(C(O)CCCN2CCC(C(O)(c3ccccc3)c3ccccc3)CC2)cc1 (stereo unspecified) [TERFENADINE] | Not Active | Not Active | Not Active | Not Active | Not Active | – | – | Not Active | –
O=C(c1ccc(OCCN2CCCCC2)cc1)c1c(-c2ccc(O)cc2)sc2cc(O)ccc12 [RALOXIFENE] | Not Active | Not Active | Not Active | Not Active | Not Active | – | – | – | –
COc1cc2c(c(OC)c1OC)-c1ccc(OC)c(=O)cc1[C@@H](NC(C)=O)CC2 [COLCHICINE] | – | – | – | – | Not Active | – | – | Not Active | Not Active
